The source of these data is article PMC4917254 (PLoS ONE, 2016).

Where “and” joins values, the source holds several entries; their conditions need not be identical. Equal entries are not always repeated. Structures can show the parent of a compound that is named as a salt. Where two headings read alike, the source gives them in different places. A value given as a limit tells only on which side of the number the result lay.

For experiment [1], the target named is T1, α5β2γ2L GABAARs (Homo sapiens, UniProt P18507+P31644+P47870).
T1 construct: expressed in transfected cells; host or cells: Xenopus laevis oocytes injected with mRNA (1:1:3)
Put plainly: Two-electrode voltage clamp, recombinant α5β2γ2L GABAARs in Xenopus oocytes. Particulars: Hill slope of GABA curve. The experiment is classed as cell-based. As for the experimental part:
(§1) The expression and functional characterisation of recombinant GABAARs in Xenopus oocytes were performed as previously described. The subunit mRNA ratios for the expression of αβγ receptors were adjusted according to the β subunit isoform in that when β2-containing receptors were expressed, a 1:1:3 ratio was used, whereas when β1- or β3-containing receptors were expressed, a 10:1:10 ratio was used to minimise the expression of homomeric β1/3 homomeric receptors. To express α4β2δ receptors, a 5:1:5 ratio was used, and the pharmacological characteristics of this receptor were as described in Hartiadi et al. (2016). The injection ratio used for the expression of α1β2 and β2γ2L receptors were 1:1 and 1:3 respectively. Approximately 2 to 10 ng of mRNA mixture was injected into each oocyte. Injected oocytes were stored in ND96 storage solution supplemented with 50 μg/mL gentamycin and tetracycline at 18°C.
(§2) Two-electrode voltage clamp recordings were performed on oocytes 2–5 days post-injection at room temperature (20–25°C) using a GeneClamp 500B amplifier (ADInstruments, Sydney, NSW, Australia) or a Warner OC-725C Oocyte Clamp (Warner Instrument Corp, Hamden, CT, USA). […]
(§3) Alternatively, the modulatory effect was expressed as the fold of potentiation, as shown in Eq 3.
A general note: Two-electrode voltage clamp holds a large cell at a set potential and records current.

Experiment [2] addresses T2, α1β2M286Wγ2L GABAARs (Homo sapiens, UniProt P14867+P18507+P47870, M310W).
T2 construct: expressed in transfected cells; host or cells: Xenopus laevis oocytes injected with mRNA
Put plainly: Two-electrode voltage clamp, mutant α1β2M286Wγ2L GABAARs in Xenopus oocytes. The experiment is classed as cell-based.
Excerpt: (§4) Human complementary DNAs (cDNAs) of GABAAR subunits used in this study and their corresponding subcloned vectors include: α1, β1, β2 and γ2L in pCDM8; α2 and α3 in pCDNA3.1; α4 and δ in pCDNA1/Amp; α5 in pCDNA3; β3 in pGEMHE. […] Linearised plasmid DNAs were used as templates for the synthesis of messenger RNAs (mRNAs) using the mMessage mMachine T7 transcript kit from Ambion (Austin, TX, USA). Mutations were introduced to various GABAAR subunits of interest using the QuikChange II Site-Directed Mutagenesis Kit. For the α1M236W point mutation, forward primer 5′-[…]-3′ and reverse primer 5′-[…]-3′ were used. For the β2M286W point mutation, forward primer 5′-[…]-3′ and reverse primer 5′- […]-3′ were used. For the β3N265M point mutation, forward primer 5′- […]-3′ and reverse primer 5′-[…]-3′ were used.
as §1
(§5) Two-electrode voltage clamp recordings were performed on oocytes 2–5 days post-injection at room temperature (20–25°C) using a GeneClamp 500B amplifier (ADInstruments, Sydney, NSW, Australia) or a Warner OC-725C Oocyte Clamp (Warner Instrument Corp, Hamden, CT, USA). All experiments were conducted at a holding potential of –60 mV, and data were acquired with a PowerLab 2/25, and LabChart (version 5.0.2) software (ADInstruments, Sydney, NSW, Australia). The recording microelectrodes (0.2–1.1 MΩ) were generated from capillary glass (Harvard Apparatus, Holliston, MA, USA) using a single-stage glass microelectrode puller (Narishige, Tokyo, Japan), and were filled with 3 M KCl solution.
(§6) Perfusates containing these chemicals were made up fresh before each application. […] All experiments were performed using at least two different batches of oocytes.
(§7) Prism (version 5.04; GraphPad Software, La Jolla, CA, USA) was used for data analysis. All data are presented as mean ± standard error of the means (SEM).
as §3

Experiment [3] addresses T3, α1β3γ2L GABAARs (Homo sapiens, UniProt P14867+P18507+P28472).
T3 construct: expressed in transfected cells; host or cells: Xenopus laevis oocytes injected with mRNA (10:1:10)
As to the kind of experiment: Two-electrode voltage clamp, recombinant α1β3γ2L GABAARs in Xenopus oocytes. The class given is cell-based. As for the experimental part:
as §1, §2, §3

Experiment [4] concerns the target T4, α1β1γ2L GABAARs (Homo sapiens, UniProt P14867+P18505+P18507).
T4 construct: expressed in transfected cells; host or cells: Xenopus laevis oocytes injected with mRNA (10:1:10)
As to the kind of experiment: Two-electrode voltage clamp, recombinant α1β1γ2L GABAARs in Xenopus oocytes. The experiment is classed as cell-based. The conditions noted are these: Hill slope of GABA curve. As for the experimental part:
as §1, §2, §3

For experiment [5], the target named is T5, α1β3N265Mγ2L GABAARs (Homo sapiens, UniProt P14867+P18507+P28472, N290M).
T5 construct: expressed in transfected cells; host or cells: Xenopus laevis oocytes injected with mRNA (10:1:10)
Put plainly: Two-electrode voltage clamp, mutant α1β3N265Mγ2L GABAARs in Xenopus oocytes. The class given is cell-based.
Excerpt: as §4, §1, §5, §6, §7, §3

Experiment [6] has as its target T6, α1β2γ2L GABAARs (Homo sapiens, UniProt P14867+P18507+P47870).
T6 construct: expressed in transfected cells; host or cells: Xenopus laevis oocytes injected with mRNA (1:1:3)
As to the kind of experiment: Two-electrode voltage clamp, recombinant α1β2γ2L GABAARs in Xenopus oocytes. The experiment is classed as cell-based. The conditions noted are these: for nH ± SEM: Hill slope of GABA curve, α1β2γ2L. As for the experimental part: as §1, §5, §6, §7, §3

The target of experiment [7] is T7, α3β2γ2L GABAARs (Homo sapiens, UniProt P18507+P34903+P47870).
T7 construct: expressed in transfected cells; host or cells: Xenopus laevis oocytes injected with mRNA (1:1:3)
Put plainly: Two-electrode voltage clamp, recombinant α3β2γ2L GABAARs in Xenopus oocytes. The class given is cell-based. Particulars: Hill slope of GABA curve. As for the experimental part:
as §1, §2, §3

For experiment [8], the target named is T8, β2γ2L GABAARs (Homo sapiens, UniProt P18507+P47870).
T8 construct: expressed in transfected cells; host or cells: Xenopus laevis oocytes injected with mRNA
As to the kind of experiment: Two-electrode voltage clamp, recombinant β2γ2L GABAARs in Xenopus oocytes. The experiment is classed as cell-based. The conditions noted are these: Hill slope of GABA curve. As for the experimental part:
as §1, §2, §3

Experiment [9] has as its target α2β2γ2L GABAARs (Homo sapiens, UniProt P18507+P47869+P47870). The conditions noted are these: Hill slope of GABA curve. As for the experimental part: as §1, §2, §3
In experiment [10] the target is T9, α4β2δ GABAARs (Homo sapiens, UniProt O14764+P47870+P48169).
T9 construct: expressed in transfected cells; host or cells: Xenopus laevis oocytes injected with mRNA (5:1:5)
Put plainly: Two-electrode voltage clamp, recombinant α4β2δ GABAARs in Xenopus oocytes. The class given is cell-based. The conditions noted are these: for nH ± SEM: Hill slope of GABA curve, α4β2δ. As for the experimental part:
as §1, §5, §6, §7, §3

Experiment [11] addresses T10, α1M236Wβ2γ2L GABAARs (Homo sapiens, UniProt P14867+P18507+P47870, M263W).
T10 construct: expressed in transfected cells; host or cells: Xenopus laevis oocytes injected with mRNA
Put plainly: Two-electrode voltage clamp, mutant α1M236Wβ2γ2L GABAARs in Xenopus oocytes. The experiment is classed as cell-based. Particulars: for agonist effect, mutant vs wild-type: p > 0.05, n = 5.
Excerpt: as §4, §1, §5, §6, §7, §3

Experiment [12] relates to α1β2, β2γ2L, αxβ2γ2L (x = 1, 2, 3 or 5), α1βxγ2L (x = 1, 2 or 3) and α4β2δ GABAARs. Put plainly: Kavain potentiation compared across GABAAR subtypes (two-electrode voltage clamp). The class given is cell-based, human. Particulars: 300 μM kavain, GABA EC3-7 (EC30 at α4β2δ), Tukey's test. As for the experimental part:
as §1, §2
Alternatively, the modulatory effect was expressed as the fold of potentiation, as shown in Eq 3. […]

Take `NCCCC(=O)O` [GABA, γ-Aminobutyric acid]: the “nH ± SEM” value is 1.0 ± 0.078 in experiment [1]; 1.1 ± 0.036 in experiment [2] (Hill slope of GABA curve, α1β2M286Wγ2L); 1.2 ± 0.070 in experiment [3] (Hill slope of GABA curve, α1β3γ2L); 1.1 ± 0.059 in experiment [4]; 1.4 ± 0.083 in experiment [5] (Hill slope of GABA curve, α1β3N265Mγ2L); 0.99 ± 0.062 in [6]. Also, the “nH ± SEM” value in [6] (+ 300 μM kavain) is 0.75 ± 0.026; in experiment [7], 1.2 ± 0.054; in experiment [8], 0.63 ± 0.034; in experiment [9], 1.4 ± 0.041; in experiment [10], 0.70 ± 0.095; in [10] (+ 300 μM kavain), 0.59 ± 0.11. In addition, the “nH ± SEM” value in experiment [11] (Hill slope of GABA curve, mutant printed as α1M286Wβ2γ2L in table) stood at 0.80 ± 0.053.
Regarding `CN1C(=O)CN=C(c2ccccc2)c2cc(Cl)ccc21` [diazepam], in experiment [6], the “enhancement of GABA current, normalised to 10 μM GABA responses” value came out at 260 ± 4.2% and the “flumazenil sensitivity of diazepam enhancement” value was “flumazenil-sensitive”.
As to `CCOC(=O)c1cncn1[C@H](C)c1ccccc1` [etomidate, Etomidate hydrochloride (HCl)], the “etomidate sensitivity (modulatory and agonist effects)” value in [2] (data not shown) was “abolished”. The “modulation (3 μM) and activation (30 μM) of the point-mutated receptors” value in experiment [5] (data not shown) is given as “did not modulate (at 3 μM) nor activate (at 30 μM)”. Further, the “enhancement of GABA EC3 responses, % of maximal GABA responses” value in experiment [6] is 53 ± 2.6% and 45 ± 3.1%. In addition, the “modulatory effect on GABA EC3 (1 μM) responses, mutant vs wild-type” value in experiment [11] (3 μM etomidate, p < 0.0001, n = 5) was “significantly attenuated”. Also, the “agonist effect, mutant vs wild-type” value in [11] (30 μM etomidate) was “not significantly different from wild-type receptors”.
Consider `CCOC(=O)c1ncn2c1CN(C)C(=O)c1cc(F)ccc1-2` [flumazenil], for which the “effect of flumazenil alone on GABA responses” value in experiment [6] (10 μM GABA + 10 μM flumazenil) was “did not alter GABA responses”.
In the case of `CC(C)c1cccc(C(C)C)c1O` [propofol], the “receptor modulation in the presence of GABA EC3 (1 μM), mutant vs wild-type” value in experiment [2] (10 μM propofol, p < 0.001) is given as “significantly diminished”. Besides, the “direct activation, mutant vs wild-type” value in experiment [2] (100 μM propofol, p > 0.05) was “unaffected”. The “propofol activity at the point-mutated receptors” value in experiment [5] is recorded as “Pronounced attenuation”. In [6], the “elicited current, % of the maximal propofol responses” value stood at 91 ± 1.5%; the “enhancement of GABA EC3 responses, % of the maximal GABA responses” value was 45 ± 3.5% and 50 ± 4.8%. Further, the “modulatory effect on GABA EC3 (1 μM) responses, mutant vs wild-type” value in [11] (10 μM propofol, p < 0.01, n = 5) was “significantly attenuated”. In addition, the “agonist effect, mutant vs wild-type” value in experiment [11] (100 μM propofol) was “not significantly different from wild-type receptors”.
On to DL-kavain, for which the “current elicited by kavain alone, % of the GABA EC3 responses” value in [2] (300 μM kavain, p < 0.0001 vs wild-type) is reported as 96 ± 5.8%; in [6] (300 μM kavain, wild-type, n = 4) it was 15 ± 3.6%; in experiment [11] (300 μM kavain, n = 6), “approximately 63 ± 5.2%”. In experiment [2] (GABA EC3 + 300 μM kavain, p > 0.05 vs α1β2γ2L), the “modulatory effect on GABA EC3-elicited responses, % of GABA EC3” value is listed as 270 ± 8.7%. The “kavain modulation of GABA EC3 responses” value came to 260 ± 18% in experiment [3] (GABA EC3 + 300 μM kavain) and 110 ± 14% in [5] (GABA EC3 + 300 μM kavain, p < 0.001 vs α1β3γ2L). In [12], the “subtype selectivity of potentiation” value is listed as “no significant subtype selectivity”. The “current elicited by kavain alone, % of GABA EC3 responses” value in experiment [5] (300 μM kavain) came to 3.3 ± 1.0%. The “GABA-enhancing action of kavain in the presence of flumazenil” value in experiment [6] (10 μM GABA + 300 μM kavain + 10 μM flumazenil) is “unaffected in the presence of flumazenil”. The “enhancement of GABA current, normalised to 10 μM GABA responses” value in experiment [6] (10 μM GABA + 300 μM kavain, n = 5) is reported as 260 ± 11%. Further, the “intrinsic agonist activity, currents relative to the 10 mM GABA responses” value in experiment [6] (300 μM kavain alone, n = 5) is recorded as below 1%. In [6] (300 μM kavain, GABA EC3 (10 μM), n = 6), the “enhancement of GABA-elicited responses” value is 170 ± 23%. Moreover, the “enhancement depending on GABA concentration” value in experiment [6] (300 μM kavain, GABA concentration-response curve) is “modest enhancement at GABA concentrations below EC45”. The “potentiation by co-application, % of GABA EC3 responses” value in [6] (GABA EC3 + 300 μM kavain, n = 4, kavain-elicited current not deducted) was determined as 250 ± 7.8%; in experiment [11] (GABA EC3 + 300 μM kavain, n = 6, kavain-elicited current not deducted) it was 220 ± 11%. In [10] (300 μM kavain, p < 0.0001), the “increase of the maximal response evoked by GABA” value is listed as “two fold”.
